Results reported in patent US9616047B2, “Inhibitors of beta-catenin in treatment of colorectal cancer” (Regents of the University of Minnesota, priority 2014, dated 2017).
Entries after “also recorded” stand apart in the source; their conditions may differ.

Legend:
HT-29 colon cancer cells = assay: Soft agar assay, anchorage-independent growth, HT29; type: cell-based
Method: (§1) FIG. 2. […] HCT116 and HT-29 colon cancer cells. Colony formation of two cell lines were inhibited by treatment of β-catenin inhibitor candidates. Cells (8×10^3/ml) were incubated with or without HI-B5 or HI-B9 compounds in 1 mL of 0.33% BME agar containing 10% FBS or in 3.5 mL of 0.5% BME agar containing 10% FBS. The cultures were maintained at 37° C. in a 5% CO2 incubator for 7 days, after which the cell colonies were counted under a microscope.
(§2) Cells (8×10^3 per well) suspended in Basal Medium Eagle (BME) supplemented with 10% FBS were added to 0.3% agar with different doses of chemicals in a top layer over a basal layer of 0.6% agar. The cultures were maintained at 37° C. in a 5% CO2 incubator for 2 wk and then colonies were counted under a microscope using the Image-Pro Plus Software (v.4) program (Media Cybernetics).

[1] = system: HCT116 colon cancer cells; assay: Soft agar assay, anchorage-independent growth, HCT116; type: cell-based
Method: as §1, §2

[2] = system: β-catenin/Tcf-4 luciferase activity; assay: β-catenin/Tcf-4 luciferase reporter assay (TOP-flash/FOP-flash) in HCT116; type: cell-based; conditions: normalized to Renilla, 24 h treatment
Text: (§3) FIGS. 1A-C. HI-B1, HI-B5 and HI-B9 inhibit beta-catenin/Tcf-4 luciferase activity in colon cancer cell lines. (A) Chemical structures of three compounds. (B-C) Effects of HI-B1, HI-B5 and HI-B9 on the β-catenin/Tcf-4 luciferase activity in HCT116 (B) and HT29 (C) colon cancer cell lines. […] Colon cancer cells were co-transfected with reporter genes harboring the β-catenin/Tcf binding site (TOP-flash) or a mutant β-catenin/Tcf binding site (FOP-flash), respectively, and the Renilla gene. The luciferase activity was normalized to Renilla activity.
(§4) Transient transfection was performed using jetPEI and assays to detect firefly luciferase and Renilla activities according to the manufacturer's manual (Promega). Briefly, cells were seeded onto 10-cm plates and co-transfected with 400 ng of the Renilla luciferase internal control gene and 4 μg of the TOP-flash luciferase reporter construct containing three tandem Tcf consensus binding sites upstream of luciferase cDNA, or the FOPflash luciferase reporter construct, a plasmid with mutated Tcf binding sites. After 16 h of transfection, cells were trypsinized and seeded onto 48-well plates, and cells were treated with respective chemicals for 24 h. Luciferase and Renilla activities were measured using their substrates.

β-catenin = assay: Ex vivo pull-down with compound-conjugated Sepharose 4B beads and colon cancer cell lysate: β-catenin; type: binding; conditions: colon cancer cell lysates; compound-conjugated Sepharose 4B beads
Method: (§5) Protein extracts (500 μg) of colon cancer cells were mixed with Sepharose-4B beads (as a negative control) or chemical-conjugated Sepharose 4B beads (100 μl) in reaction buffer. After being washed five times with buffer, the proteins were visualized by Western blot analysis.

[3] = system: target genes expressed by β-catenin/Tcf-4 complex; assay: Quantitative real-time PCR of β-catenin/Tcf-4 target genes; type: cell-based; conditions: HI-B5 40 μM or HI-B9 20 μM; 12 hr of treatment
Method: FIGS. 3A-D. HI-B5 and HI-B9 reduce mRNA expression level of target genes expressed by β-catenin/Tcf-4 complex. (A) axin2, (B) cyclin D1, (C) c-myc and (D) pparδ mRNA expression was reduced by HI-B5 40 μM or HI-B9 20 μM treatment. Esculetin was used as a positive control. Expression level of each gene was detected after 12 hr of chemical treatment.
RNA isolation was performed according to the Trizol reagent protocol (catalog #15596-018, Invitrogen). The concentration and the purity of RNA was determined by measuring the absorbance at 260/280 nm. cDNA was synthesized using 1 μg of RNA and the amfiRevert Platinum cDNA synthesis master mix (GenDEPOT, Cat. No. R5600). For real time PCR, 1 μl of the synthesized cDNA was loaded into 1 well of a 96-well plate for detection of specific target genes using the Power SYBR Green PCR master mix (ABsystems, #4367659).

[4] = system: β-catenin/Tcf-4 luciferase activity; assay: β-catenin/Tcf-4 luciferase reporter assay (TOP-flash/FOP-flash) in HT29; type: cell-based; conditions: normalized to Renilla, 24 h treatment
Text: as §3, §4

Tcf-4 = target: T1, Tcf-4 (Homo sapiens, UniProt Q9NQB0); assay: Ex vivo pull-down with compound-conjugated Sepharose 4B beads and colon cancer cell lysate: Tcf-4; type: binding; conditions: HCT116 and HT29 cell lysate
T1 construct: Protein extracts (500 μg) of colon cancer cells were mixed with Sepharose-4B beads; endogenous in cells; host or cells: HCT116 and HT29 cell lysate
T1 sequence (Q9NQB0 whole entry): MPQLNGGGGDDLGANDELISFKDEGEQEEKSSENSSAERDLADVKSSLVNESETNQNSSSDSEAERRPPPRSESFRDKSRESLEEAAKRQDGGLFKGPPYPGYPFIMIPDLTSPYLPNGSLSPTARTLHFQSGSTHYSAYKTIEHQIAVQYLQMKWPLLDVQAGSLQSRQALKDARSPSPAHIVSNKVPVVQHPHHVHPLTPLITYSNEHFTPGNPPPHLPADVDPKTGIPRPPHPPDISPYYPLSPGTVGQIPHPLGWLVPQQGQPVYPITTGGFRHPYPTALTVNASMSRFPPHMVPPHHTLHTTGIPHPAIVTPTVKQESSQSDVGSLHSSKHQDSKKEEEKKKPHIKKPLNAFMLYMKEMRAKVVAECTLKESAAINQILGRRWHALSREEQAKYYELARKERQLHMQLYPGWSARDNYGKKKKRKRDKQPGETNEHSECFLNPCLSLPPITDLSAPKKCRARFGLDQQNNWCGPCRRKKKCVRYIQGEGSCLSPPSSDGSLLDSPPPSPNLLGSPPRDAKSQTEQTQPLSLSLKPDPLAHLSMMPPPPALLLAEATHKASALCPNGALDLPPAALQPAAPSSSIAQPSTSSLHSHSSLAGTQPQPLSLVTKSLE
Method: as §5

β-catenin/Tcf-4 complex = assay: Immunoprecipitation assay of β-catenin/Tcf-4 complex in colon cancer cells; type: cell-based
Method: Colon cancer cells treated or not treated with low or high concentrations of compounds for 24 h were disrupted with lysis buffer (50 mmol/L Tris, pH 8, 250 mmol/L NaCl, 5 mmol/L EDTA, 0.1% NP-40, 10% glycerol, and 1× protease inhibitor cocktail). Cell lysates were cleared by centrifugation, and immunoprecipitations were performed by incubating overnight with anti-β-catenin. Agarose beads were then added and samples incubated for 3 h at 4° C. After removing unbound proteins by washing five times with lysis buffer, bound proteins were harvested by boiling in sample buffer, and resolved by 8% SDS-PAGE. β-Catenin and Tcf-4 proteins were visualized using a chemiluminescence reagent (Amersham).

Tcf-4/β-catenin complex [5] = assay: Immunoprecipitation and Western blotting in 293T cells transfected with wildtype or mutant β-catenin; type: cell-based; conditions: 293T cells transfected with mutant β-catenin
Method: (§6) We used computational biology technology and medicinal chemistry to identify potential inhibitors of β-catenin. […] To further confirm binding, wildtype or mutant β-catenin was transfected into 293T cells and immunoprecipitation and Western blotting were performed. […] Overall, esculetin appears to be an effective, non-toxic inhibitor of the Tcf-4/β-catenin complex.

Tcf-4/β-catenin complex [6] = target: T2, Tcf-4/β-catenin complex (Homo sapiens, UniProt P35222); assay: as above; type: cell-based; conditions: 293T cells transfected with wildtype β-catenin
T2 construct: expressed in transfected cells; host or cells: 293T cells
T2 sequence (P35222 2-781): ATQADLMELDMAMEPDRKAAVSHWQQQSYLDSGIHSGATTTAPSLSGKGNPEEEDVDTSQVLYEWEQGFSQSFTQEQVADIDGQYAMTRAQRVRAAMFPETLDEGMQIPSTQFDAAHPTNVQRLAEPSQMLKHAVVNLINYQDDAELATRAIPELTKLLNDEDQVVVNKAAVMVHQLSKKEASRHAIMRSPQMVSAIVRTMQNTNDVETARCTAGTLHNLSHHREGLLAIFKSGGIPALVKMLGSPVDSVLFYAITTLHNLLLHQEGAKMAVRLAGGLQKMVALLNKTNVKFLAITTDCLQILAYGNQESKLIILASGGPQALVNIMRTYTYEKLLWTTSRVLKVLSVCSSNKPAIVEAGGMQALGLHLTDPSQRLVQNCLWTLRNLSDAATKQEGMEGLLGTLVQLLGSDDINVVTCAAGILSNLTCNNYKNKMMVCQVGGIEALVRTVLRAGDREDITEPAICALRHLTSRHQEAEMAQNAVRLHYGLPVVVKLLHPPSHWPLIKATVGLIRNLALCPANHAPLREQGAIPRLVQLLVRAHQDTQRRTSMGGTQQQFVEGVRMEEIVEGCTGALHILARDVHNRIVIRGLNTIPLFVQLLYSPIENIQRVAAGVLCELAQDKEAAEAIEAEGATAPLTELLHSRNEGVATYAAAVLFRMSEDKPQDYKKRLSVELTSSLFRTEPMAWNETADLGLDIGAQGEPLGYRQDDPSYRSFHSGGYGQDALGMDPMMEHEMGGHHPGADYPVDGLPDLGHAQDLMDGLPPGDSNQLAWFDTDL
Method: as §6

[7] = system: xenograft colon cancer tumor; assay: Xenograft colon cancer tumor growth in nude mice; type: in vivo

SMILES	anchorage-independent growth (colony formation in soft agar) (HT-29 colon cancer cells)	anchorage-independent growth (colony formation in soft agar) [1]	transcriptional activity of β-catenin/Tcf-4 (luciferase activity) [2]	binding to β-catenin (ex vivo pull-down) (β-catenin)	axin2 mRNA expression [3]	c-myc mRNA expression [3]	cyclin D1 mRNA expression [3]	pparδ mRNA expression [3]	transcriptional activity of β-catenin/Tcf-4 (luciferase activity) [4]	binding to Tcf-4 (ex vivo pull-down) (Tcf-4)	Tcf-4 expression level after chemical treatment (β-catenin/Tcf-4 complex; HCT116)	disruption of β-catenin/Tcf-4 complex (immunoprecipitation) (β-catenin/Tcf-4 complex; HCT116 cell line, dose-dependent)	effect on mutant Tcf-4/β-catenin complex (Tcf-4/β-catenin complex [5])	disruption of wildtype Tcf-4/β-catenin complex (Tcf-4/β-catenin complex [6])	c-Myc and cyclin D1 expression in tumors ([7]; nude mice)	tumor size ([7]; nude mice)	xenograft colon cancer tumor growth ([7]; nude mice)	toxicity ([7]; overall statement)	disruption of nuclear Tcf-4/β-catenin complex (β-catenin/Tcf-4 complex; colon cancer cells)
CC1(C)CCC(C)(C)c2cc(C(=O)CC3(O)C(=O)Nc4ccc(F)cc43)ccc21 (stereo not drawn) [HI-B9]	suppress anchorage-independent growth	suppress anchorage-independent growth	suppress transcriptional activity of the β-catenin/Tcf-4 in a dose-dependent manner	verified the binding	reduced	reduced	reduced	reduced	suppress transcriptional activity of the β-catenin/Tcf-4 in a dose-dependent manner	–	–	–	–	–	–	–	–	–	–
CC1=C(/C=C/C(=O)/C=C2/C(=O)Nc3ccc(F)cc32)C(C)(C)CCC1 [HI-B5]	suppress anchorage-independent growth	suppress anchorage-independent growth	suppress transcriptional activity of the β-catenin/Tcf-4 in a dose-dependent manner	verified the binding; also recorded: can interact with β-catenin	reduced	reduced	reduced	reduced	suppress transcriptional activity of the β-catenin/Tcf-4 in a dose-dependent manner	not Tcf-4	not altered	caused disruption of β-catenin/Tcf-4 complex	–	–	–	–	–	–	–
O=c1ccc2cc(O)c(O)cc2o1 [esculetin]	–	–	inhibited transcriptional activity of the β-catenin/Tcf complex	verified the binding	–	–	–	–	–	–	–	–	had no effect	effectively disrupted	decreases	significantly smaller	effectively inhibited xenograft colon cancer tumor growth	non-toxic	disrupted the nuclear Tcf-4/β-catenin complex in a dose-dependent manner
